Key:
[1] = biological target: T1, GST-hPPARα LBD (Homo sapiens, UniProt Q07869); experiment: PPARα receptor binding assay (CARLA, TR-FRET functional binding); format: biochemical; settings: TR-FRET coactivator (SRC-1 peptide) recruitment, 3 hours at room temperature
T1 construct: made in house; host or cells: E. coli BL21(DE3)
T1 sequence (Q07869 167-468): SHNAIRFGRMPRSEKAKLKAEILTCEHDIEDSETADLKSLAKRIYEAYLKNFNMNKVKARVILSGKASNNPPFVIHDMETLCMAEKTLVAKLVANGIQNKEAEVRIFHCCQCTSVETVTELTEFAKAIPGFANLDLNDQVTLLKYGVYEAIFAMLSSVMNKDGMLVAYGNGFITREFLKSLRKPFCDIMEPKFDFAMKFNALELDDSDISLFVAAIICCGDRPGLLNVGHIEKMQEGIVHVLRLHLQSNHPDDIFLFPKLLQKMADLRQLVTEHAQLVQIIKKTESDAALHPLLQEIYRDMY
T1 sequence (Q15788 676-700 partner limits assumed): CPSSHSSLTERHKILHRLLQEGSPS
Experimental: (§1) The in vitro functional binding to the PPARα, PPARδ and PPARγ receptors is determined as follows:
(§2) The functional binding assays for the PPARα, PPARδ and PPARγ receptors are a variation of the coactivator-dependent receptor ligand assay (CARLA) (see Krey et al., “Fatty Acids, Eicosanoids, and Hypolipidemic Agents Identified as Ligands of Peroxisome Proliferator-Activated Receptors by Coactivator-Dependent Receptor Ligand Assay”, Molecular Endocrinology, Vol. 11, pp. 779-791 (1997)). The present CARLA assays use a TR-FRET detection method previously reviewed (see Hemmila, “LANCE: Homogeneous Assay Platform for HTS”, J. Biomol. Screening, Vol. 4, pp. 303-307 (1999); Mathis, “HTRF Technology”, J. Biomol. Screening, Vol. 4, pp. 309-313 (1999)). […] This brings the Eu-labeled anti-GST antibody and the strepavidin-labeled APC in close proximity, thereby facilitating fluorescence energy transfer. […] After mixing all components, the reaction mixture stands for 3 hours at room temperature before reading the TR-FRET (Time-Resolved Fluorescence Resonance Energy Transfer) signal on a Wallac Victor 2 plate reader (measuring the ratio of signals at […]). […]

[2] = biological target: T2, GST-hPPARγ LBD (Homo sapiens, UniProt P37231); experiment: PPARγ receptor binding assay (CARLA, TR-FRET functional binding); format: biochemical; settings: TR-FRET coactivator (SRC-1 peptide) recruitment, 3 hours at room temperature
T2 construct: GST-hPPARγ LBD (amino acids 175-476); made in house; host or cells: E. coli BL21(DE3)
T2 sequence (P37231 175-476 isoform P37231-2): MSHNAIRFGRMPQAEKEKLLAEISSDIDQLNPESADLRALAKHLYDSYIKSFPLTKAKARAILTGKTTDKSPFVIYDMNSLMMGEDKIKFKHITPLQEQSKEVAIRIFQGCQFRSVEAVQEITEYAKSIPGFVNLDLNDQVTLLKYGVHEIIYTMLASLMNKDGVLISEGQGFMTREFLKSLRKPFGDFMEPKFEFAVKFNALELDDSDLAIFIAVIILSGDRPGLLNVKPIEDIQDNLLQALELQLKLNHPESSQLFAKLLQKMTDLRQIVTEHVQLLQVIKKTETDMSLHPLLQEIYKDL
T2 sequence (Q15788 676-700 partner limits assumed): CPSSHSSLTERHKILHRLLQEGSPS
Experimental: as §1, §2

- EC50 [1]: ~5 nM
- EC50 [2]: ~3 nM
Compound: CCOC(=O)c1cn(CC)nc1NS(=O)(=O)c1ccc(OCc2nc(-c3ccc(C(F)(F)F)cc3)oc2C)cc1 [Example 1, 1-Ethyl-3-{4-[5-methyl-2-(4-trifluoromethyl-phenyl)oxazol-4-ylmethoxy]-benzene-sulfonylamino}-1H-pyrazole-4-carboxylic acid ethyl ester]

From patent US7538135B2, “Benzenesulfonylamino compounds and pharmaceutical compositions containing these compounds” (Novartis AG, priority 2003, dated 2009)
